Laboratory results reported in ChEMBL document CHEMBL5604062, “ASAP - ZIKV NS2B-NS3 protease fluorescence dose response” (2024).
Where “and” joins values, the source holds several entries; their conditions need not be identical. Equal entries are not always repeated.

Each molecule was assayed against Nonstructural protein 3 (Zika virus, UniProt A0A024AXB9) (assay: Functional biochemical assay to identify treatments for viral infectious disease that targets Zika NS2B-NS3 protease. Utilizing a direct enzyme activity measurement method, reading the fluorescence intensity is used to characterize the relative potency of inhibitors as IC50.).
Chain of Nonstructural protein 3 (A0A024AXB9 whole entry): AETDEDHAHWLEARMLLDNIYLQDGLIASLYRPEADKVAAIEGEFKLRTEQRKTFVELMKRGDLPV
Design: species or system PRVABC59

| Structure (SMILES) | IC50 |
| --- | --- |
| N#C[C@H](Nc1cncc(-c2nn[nH]n2)c1)c1cc(Cl)cc(NC(=O)OCc2ccccc2)c1 | 51.9 µM |
| COc1ccc(NS(=O)(=O)c2ccc(Cl)cc2C(=O)O)cc1S(=O)(=O)N1CCCC1 | > 99.5 µM |
| COc1cc(C(=O)Nc2ccc3c(c2)CNC3)cc2cnn(C)c12 | > 25 µM |
| NCc1cccc(NC(=O)[C@H]2CCCN(C(=O)OCc3ccccc3)C2)c1 | > 99.5 µM |
| Cc1c(CN)cccc1NS(=O)(=O)c1ccc(Oc2ccccc2Cl)cc1 | > 99.5 µM |
| Cc1nn(CCO)c(C(F)F)c1C(=O)Nc1cccc(CN)c1 | > 99.5 µM |
| Cc1c(C(=O)Nc2cccc(C(=O)NC3CC3)c2)cc(C2CC2)n1C | > 25 µM |
| Cc1c(C(=O)Nc2cccc(C3CCOCC3)c2)cc(C2CC2)n1C | > 25 µM |
| O=C(O)c1c(Br)sc2nnsc12 | 40.2 µM |
| N#CCc1cccc(NC(=O)c2cc(Cl)cc(NC(=O)OCc3ccccc3)c2)c1 | > 99.5 µM |
| CCn1cc(-c2cccc(CN(C)C)c2)nc(N2CC[C@@H](CO)C2)c1=O | > 99.5 µM |
| NCc1cccc(NC(=O)C[C@H](NC(=O)OCc2ccccc2)c2ccc(C(F)(F)F)cc2)c1 | 58.3 µM |
| O=C(O)c1ccc(-c2cc(NC(=O)c3cc(F)cc4[nH]ncc34)cc3c2CNC3)cc1 | 0.035 µM and 0.029 µM |
| O=C(N[C@@H](C(=O)NCc1ccncc1)c1ccc(OCc2ccccc2)cc1)OCc1ccccc1 | > 99.5 µM |
| N#C[C@H](Nc1ccc2c(c1)CNC2)c1cncc2ccccc12 | 3.87 µM |
| Cn1cc(-c2ccc([C@@H](NC(=O)OCc3ccccc3)C(=O)Nc3cccc(CN)c3)cc2)ccc1=O | > 99.5 µM |
| NCc1cccc(N2CCN(C(=O)OCc3ccccc3)[C@H](c3ccc(OCc4ccccc4)cc3)C2=O)c1 | 21 µM |
| CC(C)(C)OC(=O)NCc1cc(Cl)cc(C(=O)O)c1 | > 99.5 µM |
| O=C(Nc1ccc2nc[nH]c2c1)c1cc(F)cc2[nH]ncc12 | 3.3 µM |
| Cc1ccc([C@@H](NC(=O)OCc2ccccc2)C(=O)Nc2cccc(CN)c2)cc1C(F)(F)F | 48.7 µM |
| O=C(NCC(F)F)[C@H](Nc1ccc2c(c1)CNC2)c1cccc(Cl)c1 | 0.082 µM and 0.066 µM |
| O=C(Nc1cc(Cl)cc(C(=O)NC[C@H]2CC3(CNC3)CO2)c1)OCc1ccccc1 | 46.1 µM |
| NCc1cccc(NC(=O)c2ccc(OCc3ccccc3)cc2)c1 | > 99.5 µM |
| NCc1ccc(CNC(=O)c2cc(Cl)cc(NC(=O)OCc3ccccc3)c2)c(F)c1 | 32.9 µM |

| Structure (SMILES) | IC50 |
| --- | --- |
| NCc1cccc(NC(=O)[C@H]2[C@@H]3CC[C@@H](C3)[C@H]2NC(=O)OCc2ccccc2)c1 | 30.8 µM and 30.7 µM |
| COc1cc(Cc2c(-c3ccc(F)cc3)noc2C)nc(N2CCNCC2)n1 | 70.4 µM |
| CC(C)(C)OC(=O)Cc1cc(CN)cc(NC(=O)c2cc(Cl)cc(NC(=O)OCc3ccccc3)c2)c1 | > 99.5 µM |
| CCc1cc(NC(=O)OCc2ccccc2)cc(C(=O)Nc2cccc(CN)c2)c1 | 39.8 µM |
| Cc1c(C(=O)Nc2ncc3c(c2C#N)CCOC3)cc(C2CC2)n1C | > 25 µM |
| CC(C)Oc1ccc(Cl)cc1[C@H](Nc1ccc2c(c1)CNC2)C(=O)NCC(F)F | 0.106 µM |
| CC(C)(C)OC(=O)NCc1cccc(NC(=O)C[C@H](N)c2ccc(OCc3ccccc3)c(Br)c2)c1 | > 99.5 µM |
| N#Cc1cc(Cl)cc(C(=O)Nc2cccc(CN)c2)c1 | 11 µM |
| NCCCc1ccc(C(=O)N2CC(c3cccc(Br)c3)C2)cc1 | > 99.5 µM |
| NCCc1cccc(NC(=O)c2cc(Cl)cc3[nH]ncc23)c1 | 0.632 µM |
| CC(C)c1cnc(COc2ccc(S(=O)(=O)Nc3ccc(Cl)cc3C(=O)O)cc2)o1 | > 99.5 µM |
| NCc1cccc(NC(=O)c2cc(C3CC3)nc3ccc(Cl)cc23)c1 | > 99.5 µM |
| O=C(Nc1cc(Cl)cc(C(=O)Nc2nccc([C@H]3CCCCN3)n2)c1)OCc1ccccc1 | > 99.5 µM |
| Nc1ccc(CNC(=O)[C@@H](NC(=O)OCc2ccccc2)c2ccc(OCc3ccccc3)cc2)nc1 | > 99.5 µM |
| O=C(Nc1cc(Cl)cc(C(=O)Nc2cccc3c2OC[C@H](C(=O)O)C3)c1)OCc1ccccc1 | > 99.5 µM |
| CCn1c(=O)c(N2CCC[C@H]2C(=O)NC2CC2)nc2ccccc21 | > 99.5 µM |
| CCOc1cccc(-c2ccc(NS(=O)(=O)c3cc(F)c(Cl)cc3C(=O)O)cc2)c1 | 21.8 µM |
| O=C(O)c1cc(Cl)ccc1S(=O)(=O)NC1CCN(c2ccc(C(F)(F)F)cn2)CC1 | > 99.5 µM |
| CCCCN1Cc2ccc(NS(=O)(=O)c3ccc(Cl)cc3C(=O)O)cc2C1 | > 99.5 µM |
| CCCN1C(=O)[C@](C#N)(Nc2ccc3c(c2)CNC3)c2ccccc21 | 24 µM |
| NCc1cc(CC(=O)O)cc(NC(=O)c2cc(Cl)cc(NC(=O)OCc3ccccc3)c2)c1 | 7.96 µM |
| COc1ccc(S(=O)(=O)n2nc(OC(=O)c3ccccc3)cc2N)cc1 | 1.16 µM |
| C[C@@]1(c2cccc(CN)c2)C[C@H]1c1cc(Cl)cc(NC(=O)OCc2ccccc2)c1 | 5.57 µM |
| CC1(C)C(=O)N[C@H]2CCCN(C(=O)Nc3ccc4c(c3)CNC4)[C@H]21 | > 25 µM |

| Structure (SMILES) | IC50 |
| --- | --- |
| COc1cc(C(=O)Nc2cccc(CN)c2)cc(NC(=O)OCc2ccccc2)c1Cl | 38.1 µM |
| c1ccc2c([C@H]3CCN(C[C@H]4CCOC4)C3)c[nH]c2c1 | > 99.5 µM |
| O=C(O)c1c(NS(=O)(=O)c2ccc(Oc3ccccc3Cl)cc2)ccc(Cl)c1F | 54.1 µM |
| COc1ccc([C@@H](CC(=O)Nc2cccc(CN)c2)NC(=O)OCc2ccccc2)cc1Br | 93.9 µM |
| C[C@H]1CN(C)C[C@H](C(=O)Nc2cccc(CN)c2)O1 | > 99.5 µM |
| Cc1ccc(NC(=O)c2cc(Cl)ccc2Cl)c(C(=O)Nc2cccc(CN)c2)c1 | 53.9 µM |
| N=C(N)NCCc1ccc(OC(=O)Nc2ccccc2)cc1 | > 100 µM |
| CC(C)c1cc(NC(=O)OCc2ccccc2)cc(C(=O)Nc2cccc(CN)c2)c1 | 20 µM |
| CCn1ncc2c(C(=O)Nc3cccc(CN)c3)cc(C)nc21 | > 99.5 µM |
| Cc1cc(C(=O)O)c(NS(=O)(=O)c2ccc(Oc3ccccc3)cc2)cc1F | 68.5 µM |
| O=C(Nc1ccc2c(c1)CNC2)c1cc(Cl)cc2[nH]c(-c3nc4c(s3)CCC4)nc12 | 0.423 µM |
| NCc1cccc(NC(=O)[C@H]2COCC3(CCC3)O2)c1 | > 99.5 µM |
| CC(C)(C)c1[nH]c2ccc(F)cc2c1Cc1ccc(-c2nnn[nH]2)cc1 | > 99.5 µM |
| CCc1cc2c(cc1NC(=O)c1cc(F)cc3[nH]ncc13)CNC2 | 0.14 µM |
| NCc1ccc(-c2csc3cc(C(=O)Nc4ccc5c(c4)CNC5)ccc23)cc1 | 0.888 µM and 0.889 µM |
| O=Cc1ccc(N2CCC(C(=O)NCCc3ccccc3[N+](=O)[O-])CC2)cc1 | > 50.2 µM |
| Clc1cc(CNc2ccc3c(c2)CNC3)c2cn[nH]c2c1 | 3.28 µM |
| Cc1c(C(=O)Nc2cc(C(N)=O)ccn2)cc(C2CC2)n1C | > 25 µM |
| O=C(Nc1ccc2c(n1)CNC2)c1cc(Cl)cc2[nH]ncc12 | 0.608 µM |
| CCn1c(=O)c(N2CC3(COC3)[C@](F)(CO)C2)nc2ccccc21 | > 99.5 µM |
| CNC(=O)c1cc(C#N)ccc1NS(=O)(=O)c1ccc(Oc2ccccc2Cl)cc1 | > 99.5 µM |
| OCCCCCc1nc(-c2ccc(Br)o2)no1 | > 99.5 µM |
| C[C@H]1CCCCN1C(=O)Cn1ccnc(N2CC[C@@H](CO)C2)c1=O | > 99.5 µM |

Further lines, results first:

| IC50 | Structure (SMILES) |
| --- | --- |
| 0.081 µM and 0.132 µM | O=C(Nc1ccc2c(c1)CNC2)c1cc(F)cc2[nH]nnc12 |
| 21 µM | O=C(Nc1ccc2c(c1)CNC2)c1cc(Cl)cc(C(F)(F)F)n1 |
| > 99.5 µM | O=C(O)CCCn1cnc(-c2cc(Cl)cc(NC(=O)OCc3ccccc3)c2)n1 |
| > 99.5 µM | CCc1cc(C(=O)Nc2cccc(-c3nnn[nH]3)c2)sc1C |
| > 99.5 µM | CN(C)[C@@H]1CCC[C@H](C(=O)Nc2cccc(CN)c2)C1 |
| > 99.5 µM | CCN1C[C@H]2C[C@@H]1CN2c1nc2ccccc2n(CC)c1=O |
| 0.785 µM | COCc1cc(Cl)cc(C(=O)Nc2ccc3c(c2)CNC3)c1 |
| > 99.5 µM | O=C(O)c1ncc(F)cc1NS(=O)(=O)c1ccc(Oc2ccccc2Cl)cc1 |
| 0.488 µM | N[C@H]1Cc2ccc(NC(=O)c3cc(Cl)cc4[nH]ncc34)cc2C1 |
| > 99.5 µM | O=C(N[C@@H](C(=O)NCc1ccc(CN2CCCC2)cc1)c1ccc(OCc2ccccc2)cc1)OCc1ccccc1 |
| > 99.5 µM | NCc1cccc(NC(=O)c2nc(C3CC3)n(-c3ccccc3Cl)n2)c1 |
| 17.9 µM | COc1ncccc1-c1ccc([C@@H](NC(=O)OCc2ccccc2)C(=O)Nc2cccc(CN)c2)cc1 |
| > 99.5 µM | COC(=O)c1cc2scc(Br)c2[nH]1 |
| 2.95 µM | O=C(Nc1ccc2c(c1)CNC2)c1ccc2[nH]cnc2c1 |
| > 99.5 µM | CCNC(=O)c1cn(CC)c(=O)c(N2CC[C@@H](CO)C2)n1 |
| 37.3 µM | N[C@H]1CCN(c2ccc(NS(=O)(=O)c3ccc(Oc4ccccc4Cl)cc3)cc2)C1 |
| > 99.5 µM | O=C(C(=O)N1CCOCC1)c1c[nH]c2ccccc12 |

| IC50 | Structure (SMILES) |
| --- | --- |
| 0.075 µM and 0.05 µM | CNC(=O)[C@H](Nc1ccc2c(c1)CNC2)c1cc(Cl)cc2[nH]ncc12 |
| 0.027 µM and 0.015 µM | O=C(Nc1cc(Br)c2c(c1)CNC2)c1cc(F)cc2[nH]ncc12 |
| > 25 µM | C[C@H](NC(=O)c1cccc2c1CC(=O)N2)c1cc2cnccc2o1 |
| > 25 µM | Cc1c[nH]c2ncnc(C(=O)Nc3ccc4c(c3)CNC4)c12 |
| 3.05 µM | NCc1cccc(NC(=O)c2cc(Cl)cc3c2cnn3CC2CC2)c1 |
| 0.13 µM | O=C(Nc1ccc2c(c1)CNC2)c1cc(F)cc2[nH]c(-c3cnccc3O)nc12 |
| > 99.5 µM | O=S(=O)(Cc1nnc(Cc2ccccc2)o1)c1ccc(O)cc1 |
| 0.09 µM and 0.055 µM | Cc1cc(-c2cc(F)cc(C(=O)Nc3ccc4c(c3)CNC4)c2)[nH]n1 |
| 69.7 µM | N[C@H]1CC[C@H](NC(=O)c2cc(Cl)cc(NC(=O)OCc3ccccc3)c2)C1 |
| > 99.5 µM | CCn1c(=O)c(N2C[C@H](O)C3(CC3)C2)nc2ccccc21 |
| > 99.5 µM | COc1ccc(S(=O)(=O)Nc2cc(F)c(Cl)cc2C(=O)O)cc1 |
| > 99.5 µM | CCn1cc(-c2ccnc(N(C)C)c2)nc(N2CC[C@@H](CO)C2)c1=O |
| 17.2 µM | CCOC(=O)[C@H]1[C@H](c2cccc(CN)c2)[C@H]1c1cc(Cl)cc(NC(=O)OCc2ccccc2)c1 |
| 75.7 µM | O=C(O)c1cc(Cl)cc(NS(=O)(=O)c2ccc(-c3ccc(F)cc3)cc2)c1 |
| > 99.5 µM | NCc1ccc(NS(=O)(=O)c2ccc(Oc3ccccc3Cl)cc2)cc1 |
| > 99.5 µM | Nc1cccc(NC(=O)c2cc(Cl)cc(NC(=O)OCc3ccccc3)c2)n1 |
| > 99.5 µM | O=C(Nc1cc(Cl)cc([C@H](Nc2cccc(-c3nn[nH]n3)c2)C(=O)NC2CCOCC2)c1)OCc1ccccc1 |
